Data as given in paper PMC7806712, “A novel bifunctional aldehyde/alcohol dehydrogenase catalyzing reduction of acetyl-CoA to ethanol at temperatures up to 95 °C” (Scientific Reports, 2021).

Experiments:
Aldh (CTN_1548) = target: T1, Aldh (CTN_1548) (Thermotoga neapolitana, UniProt B9K9U1); assay: spectrophotometric NAD(P)H formation, […] nm; format: biochemical; conditions: 20 mM acetaldehyde, 1 mM NAD(P)+, no CoASH, 85 °C, various pH
T1 construct: full-length from genomic DNA, vector-encoded N-terminal residues, C-terminal His-tag kept; E. coli JM109, pHsh; heat treatment, Ni column
T1 sequence (B9K9U1 2-472): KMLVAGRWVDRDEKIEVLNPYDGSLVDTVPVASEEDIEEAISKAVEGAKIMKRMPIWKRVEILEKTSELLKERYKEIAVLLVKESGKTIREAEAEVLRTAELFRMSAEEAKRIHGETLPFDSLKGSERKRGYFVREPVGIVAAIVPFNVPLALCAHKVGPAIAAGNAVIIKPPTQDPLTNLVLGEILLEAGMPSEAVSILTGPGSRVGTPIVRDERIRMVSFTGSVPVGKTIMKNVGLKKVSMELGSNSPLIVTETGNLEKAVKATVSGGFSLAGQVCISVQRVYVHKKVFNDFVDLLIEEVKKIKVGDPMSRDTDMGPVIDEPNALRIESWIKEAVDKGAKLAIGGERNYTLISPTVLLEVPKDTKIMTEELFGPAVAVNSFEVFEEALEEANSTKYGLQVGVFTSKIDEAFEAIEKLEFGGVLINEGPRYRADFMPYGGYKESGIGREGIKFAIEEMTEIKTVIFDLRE

purified protein = substrate: CC(=O)SCCNC(=O)CCNC(=O)[C@H](O)C(C)(C)COP(=O)(O)OP(=O)(O)OC[C@H]1O[C@@H](n2cnc3c(N)ncnc32)[C@H](O)[C@@H]1OP(=O)(O)O; assay: purified protein; format: biochemical, Thermotoga neapolitana; conditions: 0.25 mM NADPH, pH 6.5, 80 °C, reduction to acetaldehyde

Row | Molecule | spectrophotometric NAD(P)H formation, 340 nm (Aldh (CTN_1548)) | Km (purified protein) [µM]
1 | NC(=O)c1ccc[n+]([C@@H]2O[C@H](COP(=O)(O)OP(=O)(O)OC[C@H]3O[C@@H](n4cnc5c(N)ncnc54)[C@H](O)[C@@H]3O)[C@@H](O)[C@H]2O)c1 [NAD^+] | catalyzed the oxidation of aldehydes to acetic acid using either NAD^+ or NADP^+ as coenzyme | 
2 | CC=O [ac-ald] | exhibited only CoA-independent activity that oxidizes ac-ald to acetic acid | 
3 | Fe-AAdh (CTN_0580) (Thermotoga neapolitana DSM 4359) (protein, full-length from genomic DNA, start Met omitted in primer (vector-encoded N-terminal residues), C-terminal His-tag kept; E. coli JM109, pHsh; heat treatment, Ni column, anaerobic) FKISCYLPTEIIFRVGAVDELEERAKKLGKKALIVTGRSSTKKTGLLQRVQDLLKKAGVESIVFDKIVPNPISDHVDEAAEIVRKEKIDFIVGLGGGSPIDSAKAISITAPNEGKFWDYVPVGGGKIPEKSIPVVAIPTTHGTGTEADPFAVITNPETKEKVGIGYRNTFPVLSLVDPEVMKTLPKDQTAYTSMDAFYHAIEAFLNVNANPYSDVLALDAMKRIVTYLPVAYENGEDMEARTNLAWASTEAGITETLTGVIANHALEHGLSGFYPEITHGLGLCITGPYLFEYIFDHAYERLAIVGREVFGVYETDDRKAGKLAIKKLRDFQEMFGLNKRLSELGVKEEDIPKMAETGYRILNGVVVVTPGNLTAKDMEEIFRRCY |  | 1750
